According to ChEMBL document CHEMBL2417394, “Exquisite selectivity for human toll-like receptor 8 in substituted furo[2,3-c]quinolines” (J Med Chem, 2013):
Calls of active or inactive are those of the source. The rule behind the calls is not given here.

Legend:
[1] = target: T1, Toll-like receptor 8 (Homo sapiens) (UniProt Q9NR97); experiment: Agonist activity at human TLR8 expressed in HEK293 cells co-transfected with MD2 and sAP assessed as induction of NF-kappaB activity by reporter gene assay; format: cell-based
T1 sequence (whole entry): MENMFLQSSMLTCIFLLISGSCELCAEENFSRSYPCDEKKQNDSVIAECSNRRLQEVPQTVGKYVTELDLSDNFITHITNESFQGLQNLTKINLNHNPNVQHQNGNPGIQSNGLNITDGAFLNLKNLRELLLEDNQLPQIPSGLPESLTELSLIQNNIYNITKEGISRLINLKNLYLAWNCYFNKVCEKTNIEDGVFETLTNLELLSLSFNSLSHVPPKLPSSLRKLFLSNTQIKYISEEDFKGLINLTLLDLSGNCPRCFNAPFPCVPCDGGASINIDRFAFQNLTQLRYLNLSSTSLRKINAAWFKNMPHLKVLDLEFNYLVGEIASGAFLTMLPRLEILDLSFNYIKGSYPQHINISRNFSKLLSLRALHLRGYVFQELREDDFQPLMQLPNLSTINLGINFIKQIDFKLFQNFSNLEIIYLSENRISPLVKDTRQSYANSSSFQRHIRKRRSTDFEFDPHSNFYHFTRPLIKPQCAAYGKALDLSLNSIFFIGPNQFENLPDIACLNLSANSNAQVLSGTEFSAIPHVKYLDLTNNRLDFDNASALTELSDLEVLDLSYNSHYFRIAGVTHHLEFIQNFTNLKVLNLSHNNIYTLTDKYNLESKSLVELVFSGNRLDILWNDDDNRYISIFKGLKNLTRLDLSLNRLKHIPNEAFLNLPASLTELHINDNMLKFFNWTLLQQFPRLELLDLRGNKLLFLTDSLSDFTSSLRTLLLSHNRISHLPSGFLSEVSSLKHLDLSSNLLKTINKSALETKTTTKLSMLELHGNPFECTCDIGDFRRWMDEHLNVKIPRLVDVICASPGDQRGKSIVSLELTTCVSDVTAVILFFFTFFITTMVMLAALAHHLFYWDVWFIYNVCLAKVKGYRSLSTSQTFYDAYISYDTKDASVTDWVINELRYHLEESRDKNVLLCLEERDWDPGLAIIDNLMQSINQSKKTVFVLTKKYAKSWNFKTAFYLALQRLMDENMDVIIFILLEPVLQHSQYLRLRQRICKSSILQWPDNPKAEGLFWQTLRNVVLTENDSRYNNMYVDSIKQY

[2] = target: T1, Toll-like receptor 8 (Homo sapiens); experiment: Modulation of human TLR8 expressed in HEK293 cells co-transfected with MD2 and sAP assessed as induction of NF-kappaB activity by reporter gene assay; format: cell-based
[3] = target: T1, Toll-like receptor 8 (Homo sapiens); experiment: Agonist activity at TLR8 in human PBMC assessed as increase of MIP1beta level after 12 hrs
[4] = target: T1, Toll-like receptor 8 (Homo sapiens); experiment: Agonist activity at TLR8 in human PBMC assessed as increase of MIP1alpha level after 12 hrs
[5] = target: T1, Toll-like receptor 8 (Homo sapiens); experiment: Agonist activity at TLR8 in human PBMC assessed as increase of GRO level after 12 hrs
[6] = target: T1, Toll-like receptor 8 (Homo sapiens); experiment: Agonist activity at TLR8 in human PBMC assessed as increase of G-CSF level after 12 hrs
[7] = target: Nucleotide-binding oligomerization domain-containing protein 2 (Homo sapiens) (UniProt Q9HC29); experiment: Modulation of NOD2 (unknown origin)
Nucleotide-binding oligomerization domain-containing protein 2 (Homo sapiens), sequence (Q9HC29 whole entry, the tested form may be a part): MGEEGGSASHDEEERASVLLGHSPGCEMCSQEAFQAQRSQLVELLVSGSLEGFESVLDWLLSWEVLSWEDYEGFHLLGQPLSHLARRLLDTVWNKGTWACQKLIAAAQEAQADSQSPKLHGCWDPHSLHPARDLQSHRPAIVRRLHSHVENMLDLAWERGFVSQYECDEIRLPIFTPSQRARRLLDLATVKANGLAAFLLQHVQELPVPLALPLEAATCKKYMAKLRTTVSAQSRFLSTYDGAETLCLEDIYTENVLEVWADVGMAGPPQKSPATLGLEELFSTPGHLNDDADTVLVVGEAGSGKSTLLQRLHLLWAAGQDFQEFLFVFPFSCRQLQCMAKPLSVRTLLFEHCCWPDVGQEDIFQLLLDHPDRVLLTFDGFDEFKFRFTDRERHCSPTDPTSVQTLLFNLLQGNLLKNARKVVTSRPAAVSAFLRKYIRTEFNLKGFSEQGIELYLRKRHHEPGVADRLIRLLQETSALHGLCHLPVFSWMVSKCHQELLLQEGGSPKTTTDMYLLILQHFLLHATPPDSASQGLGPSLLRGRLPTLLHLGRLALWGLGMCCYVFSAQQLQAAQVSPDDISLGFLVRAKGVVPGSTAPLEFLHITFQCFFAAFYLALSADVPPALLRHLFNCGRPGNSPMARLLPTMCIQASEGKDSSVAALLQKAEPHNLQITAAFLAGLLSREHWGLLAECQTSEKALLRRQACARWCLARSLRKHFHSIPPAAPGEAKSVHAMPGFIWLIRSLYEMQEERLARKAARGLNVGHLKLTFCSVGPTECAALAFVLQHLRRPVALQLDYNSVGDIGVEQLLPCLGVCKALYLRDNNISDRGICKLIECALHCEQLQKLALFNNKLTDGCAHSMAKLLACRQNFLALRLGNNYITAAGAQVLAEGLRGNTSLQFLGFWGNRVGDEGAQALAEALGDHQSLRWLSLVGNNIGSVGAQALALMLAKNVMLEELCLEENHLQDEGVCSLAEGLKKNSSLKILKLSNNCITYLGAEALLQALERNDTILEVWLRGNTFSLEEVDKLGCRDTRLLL

[8] = target: T2, Toll-like receptor 9 (Homo sapiens) (UniProt Q9NR96); experiment: Modulation of human TLR9 expressed in HEK293 cells co-transfected with MD2 and sAP assessed as induction of NF-kappaB activity by reporter gene assay; format: cell-based
T2 sequence (whole entry): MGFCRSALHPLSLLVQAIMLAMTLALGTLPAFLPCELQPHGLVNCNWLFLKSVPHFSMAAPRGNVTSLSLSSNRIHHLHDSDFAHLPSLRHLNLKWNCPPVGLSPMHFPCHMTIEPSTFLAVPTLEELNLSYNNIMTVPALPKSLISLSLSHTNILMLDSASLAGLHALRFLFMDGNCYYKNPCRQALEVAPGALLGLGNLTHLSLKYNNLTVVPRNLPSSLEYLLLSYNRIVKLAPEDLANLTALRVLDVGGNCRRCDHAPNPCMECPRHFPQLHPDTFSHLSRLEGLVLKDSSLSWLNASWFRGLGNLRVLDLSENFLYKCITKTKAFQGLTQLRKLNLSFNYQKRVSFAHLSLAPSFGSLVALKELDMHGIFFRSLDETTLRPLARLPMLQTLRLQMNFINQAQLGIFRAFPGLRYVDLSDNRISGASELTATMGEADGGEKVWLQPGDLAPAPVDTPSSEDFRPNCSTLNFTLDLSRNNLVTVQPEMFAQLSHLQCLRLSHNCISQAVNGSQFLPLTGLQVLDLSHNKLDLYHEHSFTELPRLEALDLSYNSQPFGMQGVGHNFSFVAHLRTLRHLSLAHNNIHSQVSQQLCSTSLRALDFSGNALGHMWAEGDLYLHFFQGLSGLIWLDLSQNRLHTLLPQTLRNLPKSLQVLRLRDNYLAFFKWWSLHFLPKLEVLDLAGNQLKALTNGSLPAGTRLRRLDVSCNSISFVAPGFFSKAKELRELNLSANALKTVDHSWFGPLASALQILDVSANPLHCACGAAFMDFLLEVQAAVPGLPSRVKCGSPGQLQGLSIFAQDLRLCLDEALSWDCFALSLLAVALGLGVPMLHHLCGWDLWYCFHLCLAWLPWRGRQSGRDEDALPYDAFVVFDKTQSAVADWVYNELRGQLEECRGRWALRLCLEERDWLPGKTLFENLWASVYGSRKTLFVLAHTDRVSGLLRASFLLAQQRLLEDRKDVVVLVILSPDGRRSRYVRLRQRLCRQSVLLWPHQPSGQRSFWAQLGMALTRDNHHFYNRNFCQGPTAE

[9] = target: T3, Nucleotide-binding oligomerization domain-containing protein 1 (Homo sapiens) (UniProt Q9Y239); experiment: Modulation of NOD1 (unknown origin)
T3 sequence (whole entry): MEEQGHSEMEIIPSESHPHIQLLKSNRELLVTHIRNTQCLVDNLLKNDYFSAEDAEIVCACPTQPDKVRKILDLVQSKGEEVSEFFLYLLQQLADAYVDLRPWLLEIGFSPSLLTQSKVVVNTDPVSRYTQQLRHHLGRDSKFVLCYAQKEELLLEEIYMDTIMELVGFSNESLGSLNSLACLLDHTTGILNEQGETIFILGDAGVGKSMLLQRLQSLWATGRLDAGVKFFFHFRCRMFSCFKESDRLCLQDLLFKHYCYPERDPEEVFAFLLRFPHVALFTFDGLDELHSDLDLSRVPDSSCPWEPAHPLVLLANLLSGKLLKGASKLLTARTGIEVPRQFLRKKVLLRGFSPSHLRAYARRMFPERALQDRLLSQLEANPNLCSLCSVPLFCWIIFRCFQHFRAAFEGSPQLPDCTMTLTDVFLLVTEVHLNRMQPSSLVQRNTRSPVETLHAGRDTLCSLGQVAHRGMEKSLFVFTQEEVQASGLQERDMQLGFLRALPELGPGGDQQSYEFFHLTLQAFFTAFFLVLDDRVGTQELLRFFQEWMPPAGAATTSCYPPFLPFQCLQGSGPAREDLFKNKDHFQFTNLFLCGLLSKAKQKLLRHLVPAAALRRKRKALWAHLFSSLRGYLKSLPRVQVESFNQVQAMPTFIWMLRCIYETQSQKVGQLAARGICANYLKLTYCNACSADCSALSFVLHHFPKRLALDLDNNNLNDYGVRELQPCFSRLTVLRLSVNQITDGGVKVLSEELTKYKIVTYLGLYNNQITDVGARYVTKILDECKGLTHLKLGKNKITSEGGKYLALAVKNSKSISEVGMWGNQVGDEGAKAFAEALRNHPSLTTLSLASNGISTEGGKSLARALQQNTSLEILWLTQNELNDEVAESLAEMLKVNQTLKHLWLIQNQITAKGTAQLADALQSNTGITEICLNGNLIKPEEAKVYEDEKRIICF

For `CCCCCCc1cc2c(o1)c(N)nc1ccccc12`, the Activity [1] was “Active” and the Activity [2] was “Active”.

With `CCCc1nc2c(N)nc3ccccc3c2s1` the Activity [3] was “Active”, the Activity [4] was “Active” and the Activity [5] was “Active”. The Activity [6] was “Active”.

With `Nc1nc2ccccc2c2ccoc12` the Activity [1] was “inactive”.

`CCCCCc1cc2c(o1)c(N)nc1ccccc12` was tested, and the Activity [1] was “Active” and the Activity [2] was “Active”.

With `CCCc1cc2c(o1)c(N)nc1ccccc12` the Activity [1] was “Active” and the Activity [2] was “Active”.

For `CCCCc1cc2c(o1)c(N)nc1ccccc12`, the Activity [7] was “Active”, the Activity [8] was “Active” and the Activity [9] was “Active”.

`CCCCc1nc2c(N)nc3ccccc3c2n1Cc1ccccc1` was tested, and the Activity [3] was “inactive”, the Activity [4] was “inactive” and the Activity [5] was “inactive”. The Activity [6] was “inactive”.

`Cc1cc2c(o1)c(N)nc1ccccc12` was tested, and the Activity [1] was “Active” and the Activity [2] was “Active”.
